Reference: PubChem BioAssay (NCI)
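Briefly, cells in 96-well plates were exposed to five compound concentrations for 48 h, and endpoints were estimated by linear interpolation. GI50: concentration for 50% inhibition of growth. The concentration for full growth arrest is given as TGI.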

Legend:
Assay in all cases: inhibition of tumour cell growth, NCI panel, 48 h
[1] = tested on: SF-268 CNS
[2] = tested on: NCI-H23 lung
[3] = tested on: CCRF-CEM leukemia
[4] = tested on: HT29 colon
[5] = tested on: SF-539 CNS
[6] = tested on: HOP-62 NSCLC
[7] = tested on: MCF7 breast
[8] = tested on: SNB-19 CNS
[9] = tested on: SW-620 colon
[10] = tested on: HL-60(TB) leukemia
[11] = tested on: OVCAR-3 ovarian
[12] = tested on: IGROV1 ovarian
[13] = tested on: M14 melanoma
[14] = tested on: SNB-75 CNS
[15] = tested on: MDA-MB-435
[16] = tested on: NCI-H226 lung
[17] = tested on: SK-MEL-2 melanoma
[18] = tested on: KM12 colon
[19] = tested on: UACC-62 melanoma
[20] = tested on: HCC-2998 colon
[21] = tested on: SN12C renal
[22] = tested on: COLO 205 colon
[23] = tested on: BT-549 breast
[24] = tested on: A549 NSCLC
[25] = tested on: UO-31 renal
[26] = tested on: U251 CNS
[27] = tested on: 786-0 renal
[28] = tested on: MALME-3M melanoma
[29] = tested on: RPMI-8226 leukemia
[30] = tested on: LOX IMVI melanoma
[31] = tested on: T-47D breast
[32] = tested on: SK-OV-3 ovarian
[33] = tested on: PC-3 prostate
[34] = tested on: HOP-92 NSCLC
[35] = tested on: ACHN renal
[36] = tested on: HCT-15 colon
[37] = tested on: DU-145 prostate
[38] = tested on: MOLT-4 leukemia
[39] = tested on: TK-10 renal
[40] = tested on: UACC-257 melanoma
[41] = tested on: EKVX NSCLC
[42] = tested on: NCI-H460 lung
[43] = tested on: OVCAR-4 ovarian
[44] = tested on: NCI-H522 lung
[45] = tested on: K-562 leukemia
[46] = tested on: SK-MEL-5 melanoma
[47] = tested on: OVCAR-5 ovarian
[48] = tested on: RXF 393 renal
[49] = tested on: NCI/ADR-RES ovarian
[50] = tested on: SF-295 CNS
[51] = tested on: A498 renal
[52] = tested on: HS 578T breast
[53] = tested on: SK-MEL-28 melanoma
[54] = tested on: MDA-MB-231 breast
[55] = tested on: OVCAR-8 ovarian
[56] = tested on: CAKI-1 renal

Question: For `Clc1nc(Cl)c2ncn(C/C=C\COc3cccc(OC/C=C\Cn4cnc5c(Cl)nc(Cl)nc54)c3)c2n1`, which GI50 [1] is on record?
Answer: > 100 µM

Question: What about the TGI [1] of the same molecule?
Answer: > 100 µM

Question: And the GI50 [2]?
Answer: > 100 µM

Question: What about the TGI [2] of the same molecule?
Answer: > 100 µM

Question: What about the GI50 [3] of the same molecule?
Answer: 95.8 µM

Question: What about the TGI [3] of the same molecule?
Answer: > 100 µM

Question: And the GI50 [4]?
Answer: > 100 µM

Question: What about the TGI [4] of the same molecule?
Answer: > 100 µM

Question: What about the GI50 [5] of the same molecule?
Answer: > 100 µM

Question: What about the TGI [5] of the same molecule?
Answer: > 100 µM

Question: And the GI50 [6]?
Answer: > 100 µM

Question: And the TGI [6]?
Answer: > 100 µM

Question: What about the GI50 [7] of the same molecule?
Answer: > 100 µM

Question: What about the TGI [7] of the same molecule?
Answer: > 100 µM

Question: And the GI50 [8]?
Answer: > 100 µM

Question: And the TGI [8]?
Answer: > 100 µM

Question: And the GI50 [9]?
Answer: > 100 µM

Question: What about the TGI [9] of the same molecule?
Answer: > 100 µM

Question: And the GI50 [10]?
Answer: > 100 µM

Question: And the TGI [10]?
Answer: > 100 µM

Question: What about the GI50 [11] of the same molecule?
Answer: > 100 µM

Question: What about the TGI [11] of the same molecule?
Answer: > 100 µM

Question: What about the GI50 [12] of the same molecule?
Answer: > 100 µM

Question: And the TGI [12]?
Answer: > 100 µM

Question: And the GI50 [13]?
Answer: > 100 µM

Question: And the TGI [13]?
Answer: > 100 µM

Question: What about the GI50 [14] of the same molecule?
Answer: > 100 µM

Question: What about the TGI [14] of the same molecule?
Answer: > 100 µM

Question: And the GI50 [15]?
Answer: > 100 µM

Question: And the TGI [15]?
Answer: > 100 µM

Question: What about the GI50 [16] of the same molecule?
Answer: 43.3 µM

Question: And the TGI [16]?
Answer: > 100 µM

Question: And the GI50 [17]?
Answer: > 100 µM

Question: And the TGI [17]?
Answer: > 100 µM

Question: What about the GI50 [18] of the same molecule?
Answer: > 100 µM

Question: What about the TGI [18] of the same molecule?
Answer: > 100 µM

Question: And the GI50 [19]?
Answer: > 100 µM

Question: What about the TGI [19] of the same molecule?
Answer: > 100 µM

Question: And the GI50 [20]?
Answer: > 100 µM

Question: And the TGI [20]?
Answer: > 100 µM

Question: What about the GI50 [21] of the same molecule?
Answer: > 100 µM

Question: And the TGI [21]?
Answer: > 100 µM

Question: What about the GI50 [22] of the same molecule?
Answer: > 100 µM

Question: What about the TGI [22] of the same molecule?
Answer: > 100 µM

Question: What about the GI50 [23] of the same molecule?
Answer: > 100 µM

Question: And the TGI [23]?
Answer: > 100 µM

Question: And the GI50 [24]?
Answer: > 100 µM

Question: And the TGI [24]?
Answer: > 100 µM

Question: What about the GI50 [25] of the same molecule?
Answer: > 100 µM

Question: What about the TGI [25] of the same molecule?
Answer: > 100 µM

Question: And the GI50 [26]?
Answer: > 100 µM

Question: What about the TGI [26] of the same molecule?
Answer: > 100 µM

Question: And the GI50 [27]?
Answer: > 100 µM

Question: And the TGI [27]?
Answer: > 100 µM

Question: What about the GI50 [28] of the same molecule?
Answer: > 100 µM

Question: What about the TGI [28] of the same molecule?
Answer: > 100 µM

Question: What about the GI50 [29] of the same molecule?
Answer: > 100 µM

Question: What about the TGI [29] of the same molecule?
Answer: > 100 µM

Question: What about the GI50 [30] of the same molecule?
Answer: 19.3 µM

Question: What about the TGI [30] of the same molecule?
Answer: 43.8 µM

Question: And the GI50 [31]?
Answer: 88.1 µM

Question: What about the TGI [31] of the same molecule?
Answer: > 100 µM

Question: And the GI50 [32]?
Answer: > 100 µM

Question: What about the TGI [32] of the same molecule?
Answer: > 100 µM

Question: And the GI50 [33]?
Answer: > 100 µM

Question: And the TGI [33]?
Answer: > 100 µM

Question: And the GI50 [34]?
Answer: > 100 µM

Question: And the TGI [34]?
Answer: > 100 µM

Question: And the GI50 [35]?
Answer: > 100 µM

Question: What about the TGI [35] of the same molecule?
Answer: > 100 µM

Question: And the GI50 [36]?
Answer: > 100 µM

Question: And the TGI [36]?
Answer: > 100 µM

Question: And the GI50 [37]?
Answer: > 100 µM

Question: What about the TGI [37] of the same molecule?
Answer: > 100 µM

Question: What about the GI50 [38] of the same molecule?
Answer: > 100 µM

Question: What about the TGI [38] of the same molecule?
Answer: > 100 µM

Question: And the GI50 [39]?
Answer: > 100 µM

Question: And the TGI [39]?
Answer: > 100 µM

Question: And the GI50 [40]?
Answer: > 100 µM

Question: What about the TGI [40] of the same molecule?
Answer: > 100 µM

Question: What about the GI50 [41] of the same molecule?
Answer: > 100 µM

Question: And the TGI [41]?
Answer: > 100 µM

Question: And the GI50 [42]?
Answer: > 100 µM

Question: What about the TGI [42] of the same molecule?
Answer: > 100 µM

Question: What about the GI50 [43] of the same molecule?
Answer: > 100 µM

Question: And the TGI [43]?
Answer: > 100 µM

Question: And the GI50 [44]?
Answer: > 100 µM

Question: What about the TGI [44] of the same molecule?
Answer: > 100 µM

Question: What about the GI50 [45] of the same molecule?
Answer: 53.8 µM

Question: What about the TGI [45] of the same molecule?
Answer: > 100 µM

Question: What about the GI50 [46] of the same molecule?
Answer: > 100 µM

Question: And the TGI [46]?
Answer: > 100 µM

Question: What about the GI50 [47] of the same molecule?
Answer: > 100 µM

Question: What about the TGI [47] of the same molecule?
Answer: > 100 µM

Question: What about the GI50 [48] of the same molecule?
Answer: 48.8 µM

Question: What about the TGI [48] of the same molecule?
Answer: > 100 µM

Question: What about the GI50 [49] of the same molecule?
Answer: > 100 µM

Question: What about the TGI [49] of the same molecule?
Answer: > 100 µM

Question: What about the GI50 [50] of the same molecule?
Answer: > 100 µM

Question: And the TGI [50]?
Answer: > 100 µM

Question: What about the GI50 [51] of the same molecule?
Answer: > 100 µM

Question: And the TGI [51]?
Answer: > 100 µM

Question: What about the GI50 [52] of the same molecule?
Answer: > 100 µM

Question: And the TGI [52]?
Answer: > 100 µM

Question: And the GI50 [53]?
Answer: > 100 µM

Question: And the TGI [53]?
Answer: > 100 µM

Question: What about the GI50 [54] of the same molecule?
Answer: > 100 µM

Question: And the TGI [54]?
Answer: > 100 µM

Question: And the GI50 [55]?
Answer: > 100 µM

Question: What about the TGI [55] of the same molecule?
Answer: > 100 µM

Question: And the GI50 [56]?
Answer: > 100 µM

Question: What about the TGI [56] of the same molecule?
Answer: > 100 µM
